From patent publication US7919247B2, “Simultaneous quantification of nucleic acids in diseased cells” (Pharmasset, Inc., priority 2000, dated 2011)
Like-named read-outs stand apart in the source and are kept apart here.

How the values were obtained:
[1] = system: HIV-1 xxBRU (sensitive strain); assay: real-time RT-PCR HIV-1 viral load in culture supernatant, infected human PBMC
[2] = system: HIV-1 xxBRU (sensitive strain); assay: endogenous viral RT assay of culture supernatant, HIV-1 infected human PBMC
[3] = target: T1, mitochondrial DNA polymerase γ (Homo sapiens, UniProt P54098)
T1 sequence (P54098 1-1239): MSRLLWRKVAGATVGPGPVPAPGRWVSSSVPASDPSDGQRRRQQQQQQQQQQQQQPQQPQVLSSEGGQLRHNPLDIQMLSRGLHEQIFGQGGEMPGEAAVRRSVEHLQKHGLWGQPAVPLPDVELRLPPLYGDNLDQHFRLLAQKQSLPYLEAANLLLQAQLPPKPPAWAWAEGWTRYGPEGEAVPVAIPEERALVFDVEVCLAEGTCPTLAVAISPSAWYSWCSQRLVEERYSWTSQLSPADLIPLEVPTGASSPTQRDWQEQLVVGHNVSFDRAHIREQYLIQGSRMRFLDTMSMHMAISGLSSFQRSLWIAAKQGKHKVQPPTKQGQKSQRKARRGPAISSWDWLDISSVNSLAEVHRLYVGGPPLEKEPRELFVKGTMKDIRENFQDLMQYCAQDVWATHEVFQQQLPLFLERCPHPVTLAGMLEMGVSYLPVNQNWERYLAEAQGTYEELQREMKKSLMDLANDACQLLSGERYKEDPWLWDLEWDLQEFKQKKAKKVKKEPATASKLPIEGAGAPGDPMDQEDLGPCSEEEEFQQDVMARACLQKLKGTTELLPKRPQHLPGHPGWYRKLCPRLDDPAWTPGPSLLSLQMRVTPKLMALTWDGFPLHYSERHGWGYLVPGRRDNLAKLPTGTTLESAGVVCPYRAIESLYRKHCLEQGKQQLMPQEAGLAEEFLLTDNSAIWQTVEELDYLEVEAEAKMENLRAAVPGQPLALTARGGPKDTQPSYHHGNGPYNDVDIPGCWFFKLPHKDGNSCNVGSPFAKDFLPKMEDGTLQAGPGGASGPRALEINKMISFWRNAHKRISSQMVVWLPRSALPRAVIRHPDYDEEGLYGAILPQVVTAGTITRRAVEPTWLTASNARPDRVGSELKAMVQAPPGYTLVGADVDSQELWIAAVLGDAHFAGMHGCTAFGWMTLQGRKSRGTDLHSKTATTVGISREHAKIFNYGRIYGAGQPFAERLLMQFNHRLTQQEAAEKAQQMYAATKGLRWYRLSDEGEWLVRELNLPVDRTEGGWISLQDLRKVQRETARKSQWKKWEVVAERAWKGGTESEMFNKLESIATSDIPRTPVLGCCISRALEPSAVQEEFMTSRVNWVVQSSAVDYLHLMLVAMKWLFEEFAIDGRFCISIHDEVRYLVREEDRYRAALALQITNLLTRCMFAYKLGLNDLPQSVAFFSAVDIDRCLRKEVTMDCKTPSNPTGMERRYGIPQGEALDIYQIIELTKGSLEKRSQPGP
T1 sequence (Q9UHN1 26-485 partner limits assumed): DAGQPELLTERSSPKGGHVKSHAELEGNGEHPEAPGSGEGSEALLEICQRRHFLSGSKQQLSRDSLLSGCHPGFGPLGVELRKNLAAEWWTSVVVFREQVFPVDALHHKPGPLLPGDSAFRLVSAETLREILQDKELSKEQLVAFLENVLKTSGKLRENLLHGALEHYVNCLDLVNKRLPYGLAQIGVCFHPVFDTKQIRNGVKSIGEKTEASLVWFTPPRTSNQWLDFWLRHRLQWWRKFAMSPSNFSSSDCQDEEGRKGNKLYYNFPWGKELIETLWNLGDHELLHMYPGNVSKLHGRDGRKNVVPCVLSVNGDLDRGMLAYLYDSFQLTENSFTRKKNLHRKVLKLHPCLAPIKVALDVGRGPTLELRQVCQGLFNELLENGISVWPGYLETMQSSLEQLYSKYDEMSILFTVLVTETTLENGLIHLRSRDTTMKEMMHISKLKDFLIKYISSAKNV

[4] = target: T2, mitochondrial RNA polymerase (Homo sapiens, UniProt O00411); assay: quantitative RT-PCR of mitochondrial COXII RNA calibrated against nuclear RNA transcripts; type: cell-based; details: normalized for no treatment
T2 construct: endogenous in cells; HepG2 inferred from the preceding paragraphs
Procedure: Similar results were also obtained if this technology was carried out in a quantitative reverse-transcriptase-PCR protocol. This approach measures the potential inhibition of antiviral compounds for the mitochondrial RNA polymerase, in comparison with the nuclear RNA polymerases I (generating mainly rRNA transcripts), RNA polymerase II (generating mainly mRNA transcripts), or of lesser importance, RNA polymerase III (generating mainly tRNA transcripts). To obtain such results, amplification of either rRNA, or -actin mRNA as calibrator is required.

[5] = system: PBMC; assay: MTS/MTT dye toxicity assay; type: cell-based, human; details: human PBMC, evaluated up to 100 μM
Procedure: (§1) After a three day-incubation, or 4 for CEM, or 5 days for PBMC, cell viability and mitochondrial activity were measured in a colorimetric assay using the MTS- or MTT dye (Promega, Wis.).
(§2) The cytotoxicity testing as performed here is a standard technique. Briefly, cells are seeded in 96-well plates at various concentrations (dependent on cell type, duration of assay), typically at 5×10^3 cells per well, in the presence of increasing concentrations of the test compound (0, 1, 3, 10, 33, and 100 μM). After a three day-incubation, cell viability and mitochondrial activity are measured by adding the MTS-dye (Promega), followed by a 3 hours incubation. Afterwards the plates containing the dye are read at 490 nm. Such methodologies are well described and available from the manufacturer (Promega).

[6] = MTS/MTT dye toxicity assay; type: cell-based, human; details: human
Procedure: as §1, §2

[7] = target: T1, mitochondrial DNA polymerase γ; assay: real-time PCR mitochondrial DNA polymerase toxicity (COXII vs β-actin DNA, comparative Ct) in HepG2 cells; details: 7-day incubation with up to 10 μM
[8] = system: CEM; assay: MTS/MTT dye toxicity assay; type: cell-based; details: CEM cells, evaluated up to 100 μM
Procedure: as §1, §2

[9] = system: VERO; assay: MTS/MTT dye toxicity assay; type: cell-based; details: Vero cells, evaluated up to 100 μM
Procedure: as §1, §2

[10] = MTS/MTT dye toxicity assay; type: cell-based
Procedure: as §1, §2

[11] = xxBRU, real-time RT-PCR, human PBMC, 5 days
[12] = xxBRU, RT assay, human PBMC, 5 days
[13] = Human immunodeficiency virus 1, PBMC, 120 h

T2 sequence (O00411 42-1230): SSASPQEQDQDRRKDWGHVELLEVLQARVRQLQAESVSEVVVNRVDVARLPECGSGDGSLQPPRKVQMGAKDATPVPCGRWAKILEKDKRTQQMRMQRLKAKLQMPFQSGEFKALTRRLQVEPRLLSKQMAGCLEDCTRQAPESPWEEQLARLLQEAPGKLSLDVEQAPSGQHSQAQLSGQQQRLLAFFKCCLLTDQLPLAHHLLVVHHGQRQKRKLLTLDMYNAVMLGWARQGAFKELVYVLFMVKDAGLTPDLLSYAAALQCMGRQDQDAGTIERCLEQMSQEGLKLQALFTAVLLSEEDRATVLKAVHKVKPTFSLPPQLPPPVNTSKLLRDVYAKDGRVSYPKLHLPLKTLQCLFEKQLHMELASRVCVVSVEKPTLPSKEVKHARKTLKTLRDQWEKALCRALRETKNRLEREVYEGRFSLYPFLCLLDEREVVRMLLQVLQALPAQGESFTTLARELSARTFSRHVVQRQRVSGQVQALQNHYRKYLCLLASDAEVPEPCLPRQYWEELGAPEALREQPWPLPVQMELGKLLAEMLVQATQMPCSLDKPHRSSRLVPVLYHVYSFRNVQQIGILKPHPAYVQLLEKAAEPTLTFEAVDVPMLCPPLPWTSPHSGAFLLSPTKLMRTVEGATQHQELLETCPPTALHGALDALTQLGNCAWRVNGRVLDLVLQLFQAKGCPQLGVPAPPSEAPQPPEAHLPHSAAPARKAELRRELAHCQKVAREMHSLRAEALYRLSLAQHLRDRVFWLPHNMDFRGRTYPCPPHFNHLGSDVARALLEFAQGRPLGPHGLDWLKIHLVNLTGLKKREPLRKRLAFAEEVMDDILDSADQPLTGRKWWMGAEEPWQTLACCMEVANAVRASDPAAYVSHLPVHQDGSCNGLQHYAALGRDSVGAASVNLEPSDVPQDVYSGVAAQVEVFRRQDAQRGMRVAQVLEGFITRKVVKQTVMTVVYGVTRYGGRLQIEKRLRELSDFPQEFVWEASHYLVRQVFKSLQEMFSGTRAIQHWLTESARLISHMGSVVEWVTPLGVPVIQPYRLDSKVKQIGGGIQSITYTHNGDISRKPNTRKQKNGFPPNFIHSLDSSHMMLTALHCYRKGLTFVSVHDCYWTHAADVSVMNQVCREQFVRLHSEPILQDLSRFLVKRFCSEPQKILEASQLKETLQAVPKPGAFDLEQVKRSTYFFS

Question: With `Cc1cn([C@H]2C=C[C@@H](CO)O2)c(=O)[nH]c1=O` [d4T] as the molecule, how does the EC50 [1, 11] read?
Answer: Its EC50 is 0.0027 µM.

Question: What about the EC90 [1, 11] of the same molecule?
Answer: Its EC90 is 0.12 µM.

Question: What about the EC50 [2, 12] of the same molecule?
Answer: The EC50 was 0.0034 µM.

Question: And the EC90 [2, 12]?
Answer: The EC90 was 0.13 µM.

Question: With `Nc1ccn([C@@H]2CS[C@H](CO)O2)c(=O)n1` [3TC] as the molecule, how does the EC50 [1, 11] read?
Answer: The EC50 was 0.03 µM.

Question: What about the EC90 [1, 11] of the same molecule?
Answer: Its EC90 is 0.12 µM.

Question: And the EC50 [2, 12]?
Answer: Its EC50 is 0.018 µM.

Question: What about the EC90 [2, 12] of the same molecule?
Answer: The EC90 was 0.077 µM.

Question: Which EC50 [1, 11] does the source give for `Cc1cn([C@H]2C[C@H](N=[N+]=[N-])[C@@H](CO)O2)c(=O)[nH]c1=O` [AZT] here?
Answer: The EC50 was 0.0039 µM.

Question: What about the EC90 [1, 11] of the same molecule?
Answer: Its EC90 is 0.036 µM.

Question: What about the EC50 [2, 12] of the same molecule?
Answer: Its EC50 is 0.0034 µM.

Question: And the EC90 [2, 12]?
Answer: Its EC90 is 0.034 µM.

Question: With `Nc1ccn([C@H]2CC[C@@H](CO)O2)c(=O)n1` [D-DDC] as the molecule, how does the “mitochondrial DNA reduction as compared to the no-drug control” value [3] read?
Answer: Its value is “dose-dependent reduction in mitochondrial DNA synthesis”.

Question: And the “mitochondrial (COXII) RNA levels” value [4]?
Answer: Its value is “significant reduction in mitochondrial RNA levels”.

Question: What does the source list for (−)-FTC [(-) FTC]?
Answer: mitochondrial DNA reduction as compared to the no-drug control [3]: does not induce any significant mitochondrial DNA reduction; EC50 [1, 11]: 0.0059 µM; EC90 [1, 11]: 0.088 µM; mitochondrial (COXII) RNA levels [4]: did not affect the COXII RNA levels; EC50 [2, 12]: 0.011 µM; EC90 [2, 12]: 0.05 µM

Question: Which “cytotoxicity in MTS-dye assay” value [5] does the source give for `Nc1ccn([C@H]2S[C@@H](CO)C=C2F)c(=O)n1` [β-L-d4-2′F-(4-S-pentenyl)-C] here?
Answer: The value was “no cytotoxicity was observed”.

Question: What about the CC50 at 5 days ([6]; PBMC, read-out: CC50) of the same molecule?
Answer: The CC50 at 5 days was over 100 µM.

Question: What about the EC50 [1, 13] of the same molecule?
Answer: Its EC50 is 0.4 µM.

Question: And the EC90 [1, 13]?
Answer: The EC90 was 2.68 µM.

Question: And the “mitochondrial toxicity (γ-DNA polymerase inhibition)” value [7]?
Answer: Its value is “no toxicity”.

Question: What about the “cytotoxicity in MTS-dye assay” value [8] of the same molecule?
Answer: The value was “no cytotoxicity was observed”.

Question: What about the “cytotoxicity in MTS-dye assay” value [9] of the same molecule?
Answer: Its value is “no cytotoxicity was observed”.

Question: What about the CC50 at 3 days ([10]; African green monkey, VERO, read-out: CC50) of the same molecule?
Answer: Its CC50 at 3 days is over 100 µM.

Question: And the CC50 at 4 days ([10]; human, CEM, read-out: CC50)?
Answer: The CC50 at 4 days was over 100 µM.

Question: What about the CC50 at 3 days ([10]; human, HepG2, read-out: CC50) of the same molecule?
Answer: The CC50 at 3 days was over 100 µM.

Question: And the EC50 [2, 13]?
Answer: Its EC50 is 1.61 µM.

Question: And the EC90 [2, 13]?
Answer: Its EC90 is 11.6 µM.

Question: With `Nc1ccn([C@@H]2S[C@H](CO)C=C2F)c(=O)n1` [β-D-d4-2′F-(4-S-pentenyl)-C] as the molecule, how does the CC50 at 5 days [6] read?
Answer: Its CC50 at 5 days is over 100 µM.

Question: What about the EC50 [1, 13] of the same molecule?
Answer: Its EC50 is 2.68 µM.

Question: And the EC90 [1, 13]?
Answer: The EC90 was 18.1 µM.

Question: And the CC50 at 3 days ([10]; African green monkey)?
Answer: Its CC50 at 3 days is over 100 µM.

Question: What about the CC50 at 3 days ([10]; human) of the same molecule?
Answer: The CC50 at 3 days was over 100 µM.

Question: What about the CC50 at 4 days ([10]; human) of the same molecule?
Answer: Its CC50 at 4 days is over 100 µM.

Question: And the EC50 [2, 13]?
Answer: The EC50 was 5.98 µM.

Question: And the EC90 [2, 13]?
Answer: Its EC90 is 23.2 µM.
